# According to patent US5891717A, “Methods and compositions for inhibiting hexokinase” (priority 1996, dated 1999):
# Assays:
# [1] = target: T1, HK-isletGK chimera: N-terminal 455 amino acids of rat hexokinase I fused to rat islet glucokinase, SEQ ID NO:12 (DNA SEQ ID NO:11) (Rattus norvegicus, UniProt P17712); experiment: Glucose phosphorylating activity in extracts of transiently transfected 293 cells, with and without G6P; assay type: biochemical; details: 10 mM G6P, 20 mM glucose, 293 cell extracts
# T1 construct: expressed in transfected cells; host or cells: human embryonic kidney 293 cells, crude extract
# T1 sequence (P17712 with tags, fused parts or gaps): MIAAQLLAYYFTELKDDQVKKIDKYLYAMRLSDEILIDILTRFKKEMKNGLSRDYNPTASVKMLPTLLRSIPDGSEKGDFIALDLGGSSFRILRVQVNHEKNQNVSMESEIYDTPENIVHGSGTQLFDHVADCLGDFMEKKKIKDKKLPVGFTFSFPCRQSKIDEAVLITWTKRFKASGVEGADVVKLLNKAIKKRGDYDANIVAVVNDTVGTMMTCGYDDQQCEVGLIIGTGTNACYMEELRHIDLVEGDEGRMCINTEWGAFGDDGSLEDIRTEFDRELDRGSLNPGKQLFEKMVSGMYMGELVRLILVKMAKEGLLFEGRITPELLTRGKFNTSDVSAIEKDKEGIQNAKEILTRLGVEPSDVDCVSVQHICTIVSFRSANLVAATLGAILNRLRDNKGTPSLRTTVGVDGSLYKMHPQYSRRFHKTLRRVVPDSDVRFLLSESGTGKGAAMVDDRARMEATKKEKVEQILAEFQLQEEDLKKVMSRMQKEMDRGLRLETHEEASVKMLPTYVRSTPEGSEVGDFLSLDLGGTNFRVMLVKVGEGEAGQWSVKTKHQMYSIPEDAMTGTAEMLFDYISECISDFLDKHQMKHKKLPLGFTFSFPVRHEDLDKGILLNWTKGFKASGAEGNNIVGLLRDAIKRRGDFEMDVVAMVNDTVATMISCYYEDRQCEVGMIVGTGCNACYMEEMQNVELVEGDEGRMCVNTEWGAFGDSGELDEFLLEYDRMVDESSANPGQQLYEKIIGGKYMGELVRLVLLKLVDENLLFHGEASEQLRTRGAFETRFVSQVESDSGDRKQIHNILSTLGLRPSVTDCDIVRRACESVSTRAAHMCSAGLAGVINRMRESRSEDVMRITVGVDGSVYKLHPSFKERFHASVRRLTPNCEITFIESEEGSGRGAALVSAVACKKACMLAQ
# Excerpt: (§1) For transient transfection studies, cDNAs encoding chimeric hexokinase/glucokinase proteins consisting of the N-terminal domain of hexokinase I (amino acids 1-455) linked in frame to either the full length liver isoform of glucokinase (HK-liverGK, SEQ ID NO:8) or the islet isoform of glucokinase (HK-isletGK, SEQ ID NO:11) were cloned into pAC.CMVpLpA.
# (§2) Plasmids containing DNA encoding either intact islet glucokinase, hexokinase I or one of the two hexokinase/glucokinase chimeras were introduced into the human embryonic kidney cell line 293, using Ca2 PO4 co-precipitation. After incubation with the plasmid DNA, cells were cultured for an additional 48 hours. Cells were harvested and crude extracts prepared for assay of glucose phosphorylating activity, using a radioisotopic assay that monitors conversion of U-^14 C glucose to U^14 C glucose-6-phosphate.
# (§3) Assays were performed at 3 and 20 mM glucose. At the lower glucose concentration, hexokinase activity is maximal while glucokinase activity is very low. […] The assay was also performed in the presence and absence of 10 mM unlabeled glucose-6-phosphate (G6P).
# [2] = target: T2, HK-liverGK chimera: N-terminal 455 amino acids of rat hexokinase I fused to rat liver glucokinase, SEQ ID NO:9 (DNA SEQ ID NO:8) (Rattus norvegicus, UniProt P17712); experiment: as above; assay type: biochemical; details: 10 mM G6P, 20 mM glucose, 293 cell extracts
# T2 construct: expressed in transfected cells; host or cells: human embryonic kidney 293 cells, crude extract
# T2 sequence (P17712 with tags, fused parts or gaps isoform P17712-3): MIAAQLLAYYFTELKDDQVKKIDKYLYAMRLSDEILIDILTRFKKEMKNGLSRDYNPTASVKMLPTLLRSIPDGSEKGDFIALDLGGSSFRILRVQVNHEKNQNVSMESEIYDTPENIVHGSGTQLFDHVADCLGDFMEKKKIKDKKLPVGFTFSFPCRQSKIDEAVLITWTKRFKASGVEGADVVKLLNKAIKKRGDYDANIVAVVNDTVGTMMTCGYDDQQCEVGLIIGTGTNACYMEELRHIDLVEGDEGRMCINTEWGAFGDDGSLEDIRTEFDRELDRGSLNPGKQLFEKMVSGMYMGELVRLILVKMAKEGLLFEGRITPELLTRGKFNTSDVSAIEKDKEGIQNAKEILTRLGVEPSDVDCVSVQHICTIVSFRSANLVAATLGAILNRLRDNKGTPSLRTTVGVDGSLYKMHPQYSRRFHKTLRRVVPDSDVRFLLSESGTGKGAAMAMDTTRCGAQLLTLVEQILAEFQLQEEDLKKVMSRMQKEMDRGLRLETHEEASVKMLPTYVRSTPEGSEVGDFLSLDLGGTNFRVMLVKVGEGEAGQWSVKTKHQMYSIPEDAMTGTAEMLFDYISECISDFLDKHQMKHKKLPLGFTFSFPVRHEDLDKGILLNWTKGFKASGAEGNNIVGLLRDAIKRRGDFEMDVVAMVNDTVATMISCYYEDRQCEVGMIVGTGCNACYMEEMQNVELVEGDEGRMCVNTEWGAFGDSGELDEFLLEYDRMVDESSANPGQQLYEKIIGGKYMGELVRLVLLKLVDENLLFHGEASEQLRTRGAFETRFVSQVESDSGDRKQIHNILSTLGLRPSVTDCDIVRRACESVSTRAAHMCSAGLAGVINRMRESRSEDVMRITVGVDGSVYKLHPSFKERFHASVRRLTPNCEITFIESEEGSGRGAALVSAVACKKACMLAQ
# Excerpt: as §1, §2, §3
# [3] = target: T3, native (wild type) islet glucokinase, overexpressed (Rattus norvegicus, UniProt P17712); experiment: as above; assay type: biochemical; details: 10 mM G6P, 293 cell extracts
# T3 construct: Plasmids containing DNA encoding either intact islet glucokinase, hexokinase I; expressed in transfected cells; host or cells: human embryonic kidney 293 cells, crude extract
# T3 sequence (P17712 1-465): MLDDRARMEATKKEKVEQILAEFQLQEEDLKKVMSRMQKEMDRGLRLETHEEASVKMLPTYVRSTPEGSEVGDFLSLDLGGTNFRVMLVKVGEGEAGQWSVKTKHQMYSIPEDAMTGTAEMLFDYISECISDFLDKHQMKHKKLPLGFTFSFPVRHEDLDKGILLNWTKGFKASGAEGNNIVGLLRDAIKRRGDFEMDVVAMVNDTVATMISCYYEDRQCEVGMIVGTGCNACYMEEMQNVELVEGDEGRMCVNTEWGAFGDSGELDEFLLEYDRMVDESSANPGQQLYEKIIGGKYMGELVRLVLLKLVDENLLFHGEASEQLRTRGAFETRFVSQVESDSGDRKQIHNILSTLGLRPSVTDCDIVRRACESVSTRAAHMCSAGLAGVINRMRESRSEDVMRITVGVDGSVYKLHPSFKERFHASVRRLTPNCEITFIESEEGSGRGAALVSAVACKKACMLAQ
# Method: as §2, with “glucose-6-phosphate. The extract buffer and assay procedure have previously been described in detail (Kuwajima, et al., 1986; Becker, et al., 1994; each incorporated herein by reference).” for “glucose-6-phosphate.”
# Assays were performed at 3 and 20 mM glucose. At the lower glucose concentration, hexokinase activity is maximal while glucokinase activity is very low. At the higher concentration, glucokinase activity is increased to near maximal. The assay was also performed in the presence and absence of 10 mM unlabeled glucose-6-phosphate (G6P). In the presence of G6P, low Km hexokinases are inhibited, but glucokinase is not.
# [4] = target: glucokinase (GK, hexokinase IV); details: cited from earlier work
# [5] = target: low Km hexokinases I, II and III (HKI-III); details: cited from earlier work
# [6] = target: T4, native hexokinase I, overexpressed (Rattus norvegicus, UniProt P05708); details: typically seen (Becker et al., 1994; 1996); cited from earlier work
# T4 sequence (P05708 1-918): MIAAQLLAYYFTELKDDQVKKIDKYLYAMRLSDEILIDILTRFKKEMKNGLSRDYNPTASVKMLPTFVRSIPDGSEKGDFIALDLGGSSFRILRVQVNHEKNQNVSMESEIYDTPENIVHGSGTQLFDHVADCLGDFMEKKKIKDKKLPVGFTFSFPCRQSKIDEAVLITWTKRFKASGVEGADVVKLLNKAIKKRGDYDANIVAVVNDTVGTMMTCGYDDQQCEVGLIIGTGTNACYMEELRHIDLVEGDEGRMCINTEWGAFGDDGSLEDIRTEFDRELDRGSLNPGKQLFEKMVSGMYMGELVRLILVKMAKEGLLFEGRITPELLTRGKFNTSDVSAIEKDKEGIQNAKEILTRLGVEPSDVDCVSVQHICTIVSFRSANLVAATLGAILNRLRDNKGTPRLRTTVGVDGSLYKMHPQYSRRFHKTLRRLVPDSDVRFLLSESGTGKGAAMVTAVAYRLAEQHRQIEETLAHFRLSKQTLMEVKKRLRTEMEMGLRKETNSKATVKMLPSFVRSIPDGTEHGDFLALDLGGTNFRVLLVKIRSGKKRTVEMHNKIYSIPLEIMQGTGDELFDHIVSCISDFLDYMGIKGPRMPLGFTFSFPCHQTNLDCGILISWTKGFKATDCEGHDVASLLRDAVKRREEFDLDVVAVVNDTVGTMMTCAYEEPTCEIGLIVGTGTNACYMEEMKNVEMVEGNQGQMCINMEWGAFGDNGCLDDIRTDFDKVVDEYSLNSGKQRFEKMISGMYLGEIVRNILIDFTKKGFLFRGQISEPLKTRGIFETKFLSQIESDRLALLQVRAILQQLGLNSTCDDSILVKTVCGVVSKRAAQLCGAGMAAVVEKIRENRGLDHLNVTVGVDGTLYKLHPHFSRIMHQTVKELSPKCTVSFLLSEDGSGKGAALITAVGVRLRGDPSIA
# [7] = running text (Wilson, 1985), read-out: Km for glucose
Structure (SMILES),inhibition of glucose phosphorylating activity by G6P [1],inhibition of glucose phosphorylating activity by G6P [2],effect of glucose-6-phosphate on glucose phosphorylating activity [3],"Ki ([4]; Table 1, GK, read-out: Ki G-6-P) [mM]",glucose-6-phosphate concentration required for appreciable inhibition [4] [mM],"Ki ([5]; Table 1, HKI-III, read-out: Ki G-6-P) [mM]",inhibition of glucose phosphorylating activity by G6P [6] [%],"Km [4, 7] [mM]","Km [5, 7] [mM]"
O=P(O)(O)OC[C@H]1OC(O)[C@H](O)[C@@H](O)[C@@H]1O (stereo partly drawn) [glucose-6-phosphate],approximately 40%,approximately 20%,no significant effect,60,> 10,0.2 to 0.9,90,–,–
OC[C@H]1OC(O)[C@H](O)[C@@H](O)[C@@H]1O (stereo partly drawn) [glucose],–,–,–,–,–,–,–,6 to 8,0.01 to 0.05
